Experimental findings from article PMC10180428, “α-Glucosidase Inhibitors from Two Mangrove-Derived Actinomycetes” (Molecules, 2023) are described below.

Where two headings read alike, the source gives them in different places.

Data set [1] addresses T1, α-Glucosidase (AGS) (Saccharomyces cerevisiae, UniProt P53341). Put plainly: biochemical. The note with it: read-out: AGS inhibitory activity IC50. How it is done:
The AGS inhibitory activity was evaluated following the methods reported in the literature.

In data set [2] the target is T1, α-Glucosidase (AGS). As to the kind of experiment: Inhibition kinetics analysis (Lineweaver–Burk plots and secondary plots). The class given is biochemical. To be noted: for inhibition type against AGS: Lineweaver–Burk plots. The method, then: Although several 2,5-DKP containing cyclodipeptides have been reported to inhibit the activity of AGS to different extents, little is known on the inhibition kinetics of these inhibitors. Herein, the inhibition kinetic mechanisms of 3, 8, 9, 11, 14, 16, and 17 against AGS were analyzed using the Lineweaver–Burk plots. The inhibition constants Ki and Ki’ of the inhibitors were calculated by secondary plots of “slope versus [I]” and “Y-intercept versus [I]”, respectively. […] This postulation was reinforced by the varied Km/Vmax values which were not in accordance with uncompetitive inhibition. However, the replots of the slope and y-intercept versus the concentration of 14 and 17 were not linearly fitted, which limited the application of Equations (3) and (4). […] It was interesting that seven cyclodipeptide congeners tended to inhibit the activity of AGS in four different manners, which was proposed to be caused by different substitutions on the 2,5-DKP moiety.
The mode of inhibition was determined by the Lineweaver–Burk plot using GraphPad Prism 8.0 software. The Km and Vmax values were obtained from the slope and y-axis intercept of the Lineweaver–Burk plot based on Equations (1) and (2):(1) Vmax=1/Y-intercept (2) Km=slope× Vmax
The Ki and Ki’ values were calculated by secondary plotting of the slope and y-intercept on the Lineweaver–Burk plot versus the inhibitor [I] based on Equations (3) and (4):(3) Slope=Km/Vmax+Km[I]/VmaxKi (4) Y-intercept=1/Vmax+[I]/VmaxKi^′

A short description of data set [3]: In vitro cytotoxicity MTT assay. The class given is cell-based. To be noted: human. The method, then: To preliminarily evaluate the safety of the AGS inhibitors, the in vitro cytotoxicity of 3, 8, 9, 11, 14, 16, and 17 toward human normal hepatocyte (LO2) cells was tested by MTT assay. […] Since cancer and diabetes are linked, these compounds need to be evaluated for cytotoxicity against a panel of cancer cell lines to assess their safety profile at least in vitro in future studies.
The LO2 cell line was cultured in a 1640 medium supplemented with 10% fetal bovine serum, 100 U/mL of penicillin, and 0.1 mg/mL of streptomycin in a humidified incubator with a 5% CO2 atmosphere at 37 °C. The cells were seeded in 96-well plates at a density of 3 × 10^3 cells per well. After 12 h, the medium in the wells was replaced by 100 µL of fresh medium containing drugs of six different concentrations. After incubation for another 48 h, the medium was removed and the fresh medium containing 10 µL of MTT (5 mg/mL) were added to each well and incubated for 4 h. Then, the medium was replaced by 100 µL of DMSO to dissolve the formazan crystals. OD570 was detected on a microplate reader. Parallel triplicate replication was performed for each dose, and the IC50 values were calculated.

The mark [4] stands for this setting: inhibitor concentration 0.04 mM.
[5] abbreviates: inhibitor concentration 0.06 mM.
Setting [6] is: inhibitor concentration 0.08 mM.
Where [7] appears, read: secondary plot of Y-intercept versus [I], binding to AGS-substrate complex, read-out: Ki.
Setting [8] is: inhibitor concentration 0.05 mM.
[9] abbreviates: inhibitor concentration 0.07 mM.
Where [10] appears, read: inhibitor concentration 0.09 mM.
Where [11] appears, read: inhibitor concentration 0.10 mM.

T1 sequence (P53341 whole entry): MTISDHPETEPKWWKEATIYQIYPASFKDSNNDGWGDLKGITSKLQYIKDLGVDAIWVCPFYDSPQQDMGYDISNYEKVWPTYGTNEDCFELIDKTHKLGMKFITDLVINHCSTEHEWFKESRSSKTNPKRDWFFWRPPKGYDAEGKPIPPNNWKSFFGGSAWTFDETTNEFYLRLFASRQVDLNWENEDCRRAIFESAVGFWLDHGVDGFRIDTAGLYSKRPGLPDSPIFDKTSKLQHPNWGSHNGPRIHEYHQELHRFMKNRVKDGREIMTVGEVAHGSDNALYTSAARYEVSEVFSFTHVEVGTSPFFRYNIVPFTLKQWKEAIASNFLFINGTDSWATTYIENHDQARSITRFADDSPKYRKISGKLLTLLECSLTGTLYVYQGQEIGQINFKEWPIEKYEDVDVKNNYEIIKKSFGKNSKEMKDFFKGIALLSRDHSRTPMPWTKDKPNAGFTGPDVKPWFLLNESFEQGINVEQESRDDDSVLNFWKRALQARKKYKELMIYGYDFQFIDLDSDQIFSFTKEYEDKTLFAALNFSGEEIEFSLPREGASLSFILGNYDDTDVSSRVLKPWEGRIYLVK

`COC1CCC=C(C)C(=O)Nc2cc(O)cc(c2)CC(C)CC(OC)C(O)C(C)C=C(C)C1OC(N)=O` (stereo not shown) [Compound 3, autolytimycin]: the IC50 at α-Glucosidase (AGS) [1] turned out to be 35.8 ± 0.4 µM. Moreover, the “inhibition type against AGS” value against α-Glucosidase (AGS) [2] is reported as “non-competitive inhibitors”. In addition, the Vmax at α-Glucosidase (AGS) [2] (setting [4]) is 0.86 ± 0.03 µM/min; at α-Glucosidase (AGS) [2] (setting [5]), 0.67 ± 0.04 µM/min; on α-Glucosidase (AGS) [2] (setting [6]) it was 0.46 ± 0.03 µM/min. Besides, the Ki stood at 53.10 µM on α-Glucosidase (AGS) [2] (setting [7]) and 49.2 µM on α-Glucosidase (AGS) [2] (secondary plot of slope versus [I], binding to free AGS, read-out: Ki). Besides, in data set [3], the IC50 at 48 h was more than 100 µM.

For the molecule `O=C1N[C@@H](Cc2c[nH]c3ccccc23)C(=O)N2CCC[C@@H]12` [Compound 8, cyclo(L-Pro-L-Trp)], the IC50 at α-Glucosidase (AGS) [1] was found to be 53.8 ± 1.88 µM. The Ki on α-Glucosidase (AGS) [2] was found to be 43.9 µM; at α-Glucosidase (AGS) [2] (setting [7]) it was 46.28 µM. Besides, the “inhibition type against AGS” value against α-Glucosidase (AGS) [2] was “non-competitive inhibitors”. The Vmax on α-Glucosidase (AGS) [2] (inhibitor concentration 0.02 mM) worked out at 0.85 ± 0.05 µM/min; on α-Glucosidase (AGS) [2] (inhibitor concentration 0.03 mM), 0.66 ± 0.03 µM/min; on α-Glucosidase (AGS) [2] (setting [6]), 0.41 ± 0.03 µM/min. In addition, in data set [3] (LO2 cells (human normal hepatocyte cell line), MTT, 48 h incubation, read-out: Cytotoxicity IC50 against LO2 cells), the IC50 at 48 h is more than 100 µM.

Consider `O=C1N[C@@H](Cc2c[nH]c3ccccc23)C(=O)N[C@H]1CO` [Compound 9, cyclo(L-Ser-L-Trp)], for which the IC50 at α-Glucosidase (AGS) [1] was 164 ± 15.5 µM. The Ki on α-Glucosidase (AGS) [2] is 149 µM; at α-Glucosidase (AGS) [2] (setting [7]), 238.78 µM. For the same molecule, the “inhibition type against AGS” value on α-Glucosidase (AGS) [2] is listed as “mixed-type manner”. Also, the Vmax at α-Glucosidase (AGS) [2] (setting [8]) was 1.33 ± 0.17 µM/min; at α-Glucosidase (AGS) [2] (setting [6]) it was 1.11 ± 0.14 µM/min; on α-Glucosidase (AGS) [2] (inhibitor concentration 0.20 mM), 0.89 ± 0.22 µM/min. This molecule registered an IC50 at 48 h in data set [3] of more than 100 µM.

On to `CC[C@H](C)[C@@H]1NC(=O)[C@H](Cc2ccc(O)cc2)NC1=O` [Compound 11, cyclo(L-Ile-L-Tyr)], for which the IC50 at α-Glucosidase (AGS) [1] was determined as 101 ± 2.52 µM. Moreover, the figures for the Ki at α-Glucosidase (AGS) [2] and on α-Glucosidase (AGS) [2] (setting [7]) were 95.5 µM and 531.53 µM, respectively. For the same molecule, on α-Glucosidase (AGS) [2], the “inhibition type against AGS” value was “mixed-type manner”. Besides, the Vmax on α-Glucosidase (AGS) [2] (setting [5]) stood at 0.98 ± 0.05 µM/min; at α-Glucosidase (AGS) [2] (setting [9]), 0.94 ± 0.02 µM/min; at α-Glucosidase (AGS) [2] (setting [10]), 0.90 ± 0.05 µM/min. Besides, the IC50 at 48 h in data set [3] was more than 100 µM.

As for `O=C1NC(Cc2ccccc2)C(=O)NC1CO` [Compound 14, cyclo(L-Ser-L-Phe)], the IC50 on α-Glucosidase (AGS) [1] was 62.2 ± 0.11 µM. Further, the “inhibition type against AGS” value on α-Glucosidase (AGS) [2] is “competitive inhibitor”. Further, the Vmax came out at 0.81 ± 0.06 µM/min at α-Glucosidase (AGS) [2] (setting [4]), 0.76 ± 0.04 µM/min on α-Glucosidase (AGS) [2] (setting [10]) and 0.83 ± 0.18 µM/min on α-Glucosidase (AGS) [2] (setting [11]). The IC50 at 48 h in data set [3] is more than 100 µM.

Consider `CC[C@H](C)[C@@H]1NC(=O)[C@H](CC(C)C)NC1=O` [Compound 16, cyclo(L-Leu-L-Ile)], for which, on α-Glucosidase (AGS) [1], the IC50 was determined as 74 ± 1.25 µM. Also, the Ki at α-Glucosidase (AGS) [2] is 59.8 µM; on α-Glucosidase (AGS) [2] (setting [7]) it was 78.89 µM. For the same molecule, the “inhibition type against AGS” value on α-Glucosidase (AGS) [2] is “mixed-type manner”. The Vmax came out at 1.07 ± 0.13 µM/min on α-Glucosidase (AGS) [2] (setting [8]), 0.86 ± 0.11 µM/min at α-Glucosidase (AGS) [2] (setting [6]) and 0.74 ± 0.07 µM/min at α-Glucosidase (AGS) [2] (setting [11]). This molecule registered an IC50 at 48 h in data set [3] of more than 100 µM.

For `C[C@@H]1NC(=O)[C@@H]2CCCN2C1=O` [Compound 17, cyclo(L-Ala-L-Pro)], the IC50 at α-Glucosidase (AGS) [1] is 56.75 ± 0.32 µM. The “inhibition type against AGS” value at α-Glucosidase (AGS) [2] was “non-competitive and uncompetitive mixed-type of inhibition”. Besides, the Vmax stood at 0.79 ± 0.02 µM/min on α-Glucosidase (AGS) [2] (setting [5]), 0.66 ± 0.03 µM/min at α-Glucosidase (AGS) [2] (setting [9]) and 0.47 ± 0.01 µM/min on α-Glucosidase (AGS) [2] (setting [10]). This molecule returned an IC50 at 48 h in data set [3] of more than 100 µM.
